Like-named read-outs stand apart in the source and are kept apart here.

For series [1] the following is noted: cited from earlier work.
For series [2], the system named is inflammatory mediators and tissue damage markers (troponin or serum transaminase levels). Conditions: patients undergoing lung, heart or liver surgery; cited from earlier work.
For series [3], the system named is CINC-1/GROa protein levels of human blood micro vascular endothelial cells. Nature of the series: CINC-1/GROa protein levels in supernatants of LPS-stimulated HMVEC (ELISA). Conditions: for CINC-1/GROa protein level in relation to LPS without any substance, Median: HMVEC, LPS 20 μg/ml 6 hours, positive control=100%. In kind it is cell-based. Here is the method:
Table 1 CINC-1/GROa protein levels of human blood micro vascular endothelial cells measured in supernatants in relation to an exposition to LPS without any substance (positive control=100%)
(§1) METHODS: Different molecules with CF3-group were tested against their corresponding non-fluorinated molecules. The group of molecules with CF3-group included hexafluoroisopropanol, 2,2,3,3,3-pentafluoro-1-propanol, 2,2,2-trifluorethanol, 3-amino-4,4,4-tri-fluorobutyroic acid, methyl-4,4,4-trifluoro-acetoacetate, methyl-trifluoro-acetamide, 5,5,5-trifluorleucine and Sevoflurane. In the group without CFx moieties 2-propanol, 1-propanol, ethanol, leucine, and diethyl ether were included. As well established model rat alveolar epithelial cells (AEC) and human blood microvascular cells (HMVEC) were exposed to phosphate-buffered saline (PBS, negative control) or LPS (20 μg/ml) for 6 hours (positive control). The influence of fluorinated compounds and non-fluorinated reference compounds on the inflammatory response of the cells was tested. Expression of rat-MCP-1 (BD Biosciences, San Diego, Calif.) and human CINC-1 GROa (R&D Systems Europe Ltd.) protein were analyzed by ELISA. Evaluation of possible cytotoxicity was done counting cells by means of fluorescence DNA quantification assays. At the same time release of lactate dehydrogenase into the supernatants was measured (LDH Assay, Promega, Madison, Wis., USA).

Series [4] relates to MCP-1 levels of rat alveolar epithelial cells. Nature of the series: MCP-1 levels in supernatants of LPS-stimulated rat alveolar epithelial cells (ELISA). In kind it is cell-based. Here is the method:
Table 2 MCP-1 levels of rat alveolar epithelial cells measured in supernatants in relation to an exposition to LPS without any substance (positive control=100%)
as §1

Series [5] relates to human microvascular endothelial cells (HMVEC). Description: Viability and cytotoxicity in HMVEC (LDH release, fluorescence DNA quantification). Format: cell-based. Conditions: LDH release and cell count by fluorescence DNA quantification, in relation to control (100%), FIG. 1. Here is the method: Viability is assessed by measuring the release of lactate de-hydrogenase and cytotoxicity is quantified by counting cells by means of fluorescence DNA quantification assays (see example 1). […] Concentration level differences are presented in relation to control (100%).
as §1

For series [6] the following is noted: cited from earlier work. This is another data set of the same source.
Series [7] has as its system polymorphonuclear neutrophils. Description: Chemotactic migration of polymorphonuclear neutrophils towards supernatants from LPS-stimulated endothelial cells. In kind it is cell-based. The conditions noted are these: 16 mmol/L, FIG. 2. Here is the method: Furthermore, the effect of hexafluoro-2-propanol in a concentration of 16 mmol/L on the chemotactic migration of polymorphonuclear neutrophils towards supernatants from LPS-stimulated endothelial cells (right side, 270)° and towards supernatants from LPS-stimulated endothelial cells incubated with hexafluoro-2-propanol (left side, 90°) was assessed according to (De Conno et al., Anesthesiology 2009; 110:1316-1326)

Where [8] appears, read: Epithelial cell, rat AEC, LPS 20 μg/ml 6 hours, 16 mmol/l in culture medium, positive control=100%, read-out: MCP-1 level in relation to LPS without any substance, Median.
[9] abbreviates: Epithelial cell, rat AEC, LPS 20 μg/ml 6 hours, 32 mmol/l in culture medium, positive control=100%, read-out: MCP-1 level in relation to LPS without any substance, Median.
Where [10] appears, read: Epithelial cell, rat AEC, LPS 20 μg/ml 6 hours, 64 mmol/l in culture medium, positive control=100%, read-out: MCP-1 level in relation to LPS without any substance, Median.
Setting [11] is: rat AEC, LPS 20 μg/ml 6 hours, 16 mmol/l in culture medium, positive control=100%.
The mark [12] stands for this setting: rat AEC, LPS 20 μg/ml 6 hours, 32 mmol/l in culture medium, positive control=100%.
Setting [13] is: rat AEC, LPS 20 μg/ml 6 hours, 64 mmol/l in culture medium, positive control=100%.
The mark [14] stands for this setting: Rattus norvegicus, Epithelial cell, 6 h, read-out: MCP-1 level in relation to LPS without any substance, Median.
Setting [15] is: footnote 1: Qiana et al., Journal of Chromatography A 2007.

Consider `FC(F)OC(Cl)C(F)(F)F` (centres unmarked) [Isoflurane], for which the “Octanol water partition coefficient” value in series [1] (footnote 2: Urban et al. 1995) is reported as 156. Moreover, the “Inflammatory mediators and tissue damage markers in patients” value in series [2] is given as “significantly reduces”.

Take `NC(CC(=O)O)C(F)(F)F` (centres unmarked) [3-Amino-4,4,4-Trifluorobutyroic acid, 3-Amino-4,4,4-trifluorobutyric acid]: the melting point was 180 to 190 °C. Besides, the “CINC-1/GROa protein level in relation to LPS without any substance, Median” value in series [3] (8 mmol/l in culture medium) came to 79%. For the same compound, in series [3] (16 mmol/l in culture medium), the “CINC-1/GROa protein level in relation to LPS without any substance, Median” value is recorded as 0%. In series [3] (64 mmol/l in culture medium), the “CINC-1/GROa protein level in relation to LPS without any substance, Median” value came out at 0%. Moreover, the activity at 16000 µM in series [4] (setting [8]) came to 101%. For the same compound, in series [4] (setting [9]), the activity at 32000 µM was 44%. Also, the activity at 64000 µM in series [4] (setting [10]) was 0%. In addition, the “Viability and cytotoxicity in HMVEC” value in series [5] is “does not cause significant cytotoxicity”.

With Enflurane, the “Octanol water partition coefficient” value in series [1] (footnote 2: Urban et al. 1995) is given as 122.

On to `CCO` [Ethanol, reference compound], for which the “CINC-1/GROa protein level in relation to LPS without any substance, Median” value in series [3] (16 mmol/l in culture medium) is reported as 107%; in series [3] (32 mmol/l in culture medium), 91%; in series [3] (64 mmol/l in culture medium) it was 88%. Besides, the activity at 16000 µM in series [4] (setting [8]) was 103%. The activity at 64000 µM in series [4] (setting [10]) came out at 92%.

For the compound `CC(N)CC(=O)O` (racemic) [DL-3-Amino-n-butyric acid, reference compound], the “MCP-1 level in relation to LPS without any substance, Median” value was 95% in series [4] (rat AEC, LPS 20 μg/ml 6 hours, 8 mmol/l in culture medium, positive control=100%); 91% in series [4] (setting [11]); 149% in series [4] (setting [12]); 117% in series [4] (setting [13]).

As for `ClC(Cl)Cl` [Chloroform, reference compound], the activity at 64000 µM in series [4] (setting [14]) came to 171%.

In the case of `CCCO` [1-Propanol, reference compound], the “CINC-1/GROa protein level in relation to LPS without any substance, Median” value was 82% in series [3] (16 mmol/l in culture medium), 81% in series [3] (32 mmol/l in culture medium) and 64% in series [3] (64 mmol/l in culture medium). For the same compound, the “MCP-1 level in relation to LPS without any substance, Median” value was found to be 99% in series [4] (setting [11]) and 74% in series [4] (setting [13]).

On to `FC(F)OC(F)C(F)(F)F` (centres unmarked) [Desflurane], for which the “Octanol water partition coefficient” value in series [1] (footnote 2: Urban et al. 1995) was 28.5. Further, the “Inflammatory mediators and tissue damage markers in patients” value in series [2] was “significantly reduces”.

`OCC(F)(F)C(F)(F)F` [2,2,3,3,3-Pentafluoro-1-propanol]: the “CINC-1/GROa protein level in relation to LPS without any substance, Median” value in series [3] (16 mmol/l in culture medium) stood at 115%; in series [3] (32 mmol/l in culture medium) it was 41%; in series [3] (64 mmol/l in culture medium) it was 31%. Moreover, the activity at 16000 µM in series [4] (setting [8]) was 92%. Besides, the activity at 64000 µM in series [4] (setting [10]) stood at 70%. The Solubility in series [6] (25° C.) is 21.9 g/L (25° C.).

On to Sevoflurane, for which, in series [4] (setting [13]), the “MCP-1 level in relation to LPS without any substance, Median” value is reported as 68%. Also, the “Octanol water partition coefficient” value in series [1] (footnote 2: Urban et al. 1995) is recorded as 71. Besides, the “Inflammatory mediators and tissue damage markers in patients” value in series [2] is given as “significantly reduces”.

With `CC(C)C[C@H](N)C(=O)O` [Leucine, reference compound], the activity at 16000 µM in series [4] (setting [8]) was found to be 91%.

Turning to `COC(=O)CC(=O)C(F)(F)F` [Methyl-4,4,4-trifluoro-acetoacetate], the activity at 16000 µM in series [4] (setting [8]) came out at 7%. The activity at 32000 µM in series [4] (setting [9]) worked out at 0%.

Regarding `CC(C)O` [2-Propanol, reference compound], the results for the “CINC-1/GROa protein level in relation to LPS without any substance, Median” value in series [3] (4 mmol/l in culture medium) and in series [3] (16 mmol/l in culture medium) were 109% and 97%, respectively. The results for the “MCP-1 level in relation to LPS without any substance, Median” value in series [4] (setting [11]), in series [4] (setting [12]) and in series [4] (setting [13]) were 101%, 86% and 82%, respectively.

As for `OCC(F)(F)F` [2,2,2-Trifluorethanol, 2,2,2-Trifluoroethanol], the “CINC-1/GROa protein level in relation to LPS without any substance, Median” value in series [3] (16 mmol/l in culture medium) turned out to be 98%; in series [3] (32 mmol/l in culture medium), 78%; in series [3] (64 mmol/l in culture medium), 73%. Also, the activity at 16000 µM in series [4] (setting [8]) was found to be 58%. Besides, the activity at 64000 µM in series [4] (setting [10]) turned out to be 59%. The “Viability and cytotoxicity in HMVEC” value in series [5] was “does not cause significant cytotoxicity”. Also, the “Octanol water partition coefficient” value in series [1] (setting [15]) was 0.17 ^(1). The Solubility result in series [6] (in words) is recorded as “miscible”.

Regarding `OC(C(F)(F)F)C(F)(F)F` [Hexafluoroisopropanol, 1,1,1,3,3,3-Hexafluoropropan-2-ol], the “CINC-1/GROa protein level in relation to LPS without any substance, Median” value in series [3] (4 mmol/l in culture medium) came out at 49%; in series [3] (16 mmol/l in culture medium), 26%. In addition, the “CINC-1 levels of endothelial cells stimulated with LPS (in words)” value in series [3] (LPS stimulation) was “decrease was most pronounced”. In addition, the activity at 4000 µM in series [4] (Epithelial cell, rat AEC, LPS 20 μg/ml 6 hours, 4 mmol/l in culture medium, positive control=100%, read-out: MCP-1 level in relation to LPS without any substance, Median) is 98%. Further, in series [4] (Epithelial cell, rat AEC, LPS 20 μg/ml 6 hours, 8 mmol/l in culture medium, positive control=100%, read-out: MCP-1 level in relation to LPS without any substance, Median), the activity at 8000 µM amounted to 101%. In series [4] (setting [8]), the activity at 16000 µM was found to be 63%. For the same compound, the activity at 32000 µM in series [4] (setting [9]) stood at 11%. The “MCP-1 levels of epithelial cells stimulated with LPS (in words)” value in series [4] (LPS stimulation) is recorded as “decrease was most pronounced”. Further, the “Viability and cytotoxicity in HMVEC” value in series [5] was “does not cause significant cytotoxicity”. Further, the Chemotaxis for neutrophils result in series [7] is “significantly attenuated chemotaxis”. In addition, in series [1] (setting [15]), the “Octanol water partition coefficient” value is listed as 0.37 ^(1). The Solubility in series [6] (25° C.) is listed as 1000 g/L (25° C.).

As to `CNC(=O)C(F)(F)F` [Methyltrifluoroacetamide, N-Methyl-2,2,2-trifluoroacetamide], in series [4] (setting [14]), the activity at 8000 µM was determined as 80%, the activity at 16000 µM turned out to be 56%, the activity at 32000 µM came to 41% and the activity at 64000 µM is 0%.

In the case of `FC(F)(F)C(Cl)Br` (centres unmarked) [Halothane], the “Octanol water partition coefficient” value in series [1] (footnote 2: Urban et al. 1995) is reported as 315.

In the case of `CC(C[C@H](N)C(=O)O)C(F)(F)F` (some centres unmarked) [5,5,5-Trifluorleucine], in series [4] (setting [11]), the “MCP-1 level in relation to LPS without any substance, Median” value is reported as 68%.

These data come from patent publication US20120219596A1, “INJECTABLE FORMULATION FOR TREATMENT AND PROTECTION OF PATIENTS HAVING AN INFLAMMATORY REACTION OR AN ISCHEMIA-REPERFUSION EVENT” (ETH Zurich, priority 2009, published 2012).
